Experimental data as given in patent publication US20250230163A1, “SOLID FORMS OF HIV INTEGRASE INHIBITORS” (Gilead Sciences, Inc., priority 2023, published 2025).

Tests used:
[1] = Hygroscopicity by dynamic vapor sorption (DVS); type: physicochemical; settings: for solid form post DVS experiment: after sorption/desorption cycle up to 95% RH at 25° C.; for water absorbed (dynamic vapor sorption): up to 95% RH at 25° C.
Procedure: Hygroscopicity was studied using dynamic vapor sorption (DVS, TA Q5000 SA, TA Instruments, New Castle, DE or DVS, DVS Intrinsic, Surface Measurement Systems, London, UK). A sample (1-20 mg) was placed in an aluminum DVS pan and loaded on the sample side of the twin pan balance. The water sorption and desorption were studied as a function of relative humidity (RH) at 25° C. In 10% RH increments, the relative humidity was increased from 5% RH to 95% RH and then decreased back to 5%. […] Data analysis was performed using Universal Analysis 2000 Version 4.7A (TA Instruments, New Castle, DE) for TA DVS runs and Microsoft Excel for SMS DVS runs.

[2] = Physical form stability on drying under ambient conditions; type: physicochemical
Text: Compound of Formula I, Form II is a metastable methanol solvated phase. It was isolated when compound of Formula I, Form I was slurried in methanol for about 60 days and identified by x-ray of the wet cake. […] Compound of Formula I, Form III was also made when Form II was dried under ambient conditions.

Structure (SMILES)	solid form post DVS experiment [1]	water absorbed (dynamic vapor sorption) [1]	form conversion upon drying [2]
O=C(NCc1c(F)cc(F)cc1F)c1cn2c(c(O)c1=O)C(=O)N1CCCC[C@H]2C1 [Compound of Formula I, Form IV, (7S)-12-hydroxy-1,11-dioxo-N-(2,4,6-trifluorobenzyl)-1,4,5,6,7,11-hexahydro-3H-2,7-methanopyrido[1,2-a][1,4]diazonine-10-carboxamide]	not have changed form	about 3.5%	–
O=C(NCc1c(F)cc(F)cc1F)c1cn2c(c(O)c1=O)C(=O)N1CCCC[C@H]2C1 [Compound of Formula I, Form I, (7S)-12-hydroxy-1,11-dioxo-N-(2,4,6-trifluorobenzyl)-1,4,5,6,7,11-hexahydro-3H-2,7-methanopyrido[1,2-a][1,4]diazonine-10-carboxamide]	not have changed form	about 0.097%	–
O=C(NCc1c(F)cc(F)cc1F)c1cn2c(c(O)c1=O)C(=O)N1CCCC[C@H]2C1 [Compound of Formula I, Form II, (7S)-12-hydroxy-1,11-dioxo-N-(2,4,6-trifluorobenzyl)-1,4,5,6,7,11-hexahydro-3H-2,7-methanopyrido[1,2-a][1,4]diazonine-10-carboxamide]	–	–	convert to compound of Formula I, Form III
O=C(NCc1c(F)cc(F)cc1F)c1cn2c(c(O)c1=O)C(=O)N1CCCC[C@H]2C1 [Compound of Formula I, Form III, (7S)-12-hydroxy-1,11-dioxo-N-(2,4,6-trifluorobenzyl)-1,4,5,6,7,11-hexahydro-3H-2,7-methanopyrido[1,2-a][1,4]diazonine-10-carboxamide]	not have changed form	about 0.87%	–
